Literature values as cited in US20090170848A1, “THIAZOLONES FOR USE AS PI3 KINASE INHIBITORS” (SMITHKLINE BEECHAM CORPORATION, priority 2006, published 2009).
Read-outs that look alike come from different tables or passages of the source.

What was measured:
CK2 protein kinase = CK2 protein kinase (Homo sapiens, UniProt P68400)
Chain of CK2 protein kinase (P68400 whole entry): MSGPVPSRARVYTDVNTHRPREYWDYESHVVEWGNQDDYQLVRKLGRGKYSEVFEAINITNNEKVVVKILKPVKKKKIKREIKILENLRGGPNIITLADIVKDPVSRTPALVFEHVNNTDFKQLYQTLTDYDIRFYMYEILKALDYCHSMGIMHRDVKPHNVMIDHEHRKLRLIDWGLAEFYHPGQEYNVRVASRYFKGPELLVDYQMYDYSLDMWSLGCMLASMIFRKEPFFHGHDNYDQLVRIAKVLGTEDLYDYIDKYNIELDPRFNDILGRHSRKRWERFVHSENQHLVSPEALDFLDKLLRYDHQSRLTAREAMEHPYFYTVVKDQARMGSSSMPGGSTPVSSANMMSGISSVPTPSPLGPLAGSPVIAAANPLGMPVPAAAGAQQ

Row | SMILES | IC50 (Class I PI3-kinases; each of the four members of Class I PI3-kinases, read-out: IC50 values against each of the various Class I PI3-kinases) [µM] | IC50 (CK2 protein kinase) [µM] | IC50 (Class I PI3-kinases; read-out: IC50 values against each of these PI3-kinases) [µM]
1 | COC[C@H]1OC(=O)c2coc3c2[C@@]1(C)C1=C(C3=O)[C@@H]2CCC(=O)[C@@]2(C)C[C@H]1OC(C)=O [wortmannin] | 0.001 to 0.01 | – | –
2 | O=c1cc(N2CCOCC2)oc2c(-c3ccccc3)cccc12 [LY294002] | – | 5 to 10 | 15 to 20
